# Where two headings read alike, the source gives them in different places. Where a SMILES comes first, the peptide text is derived from it. Bridges are numbered along the chain shown (N, C = ends). [ ]: non-standard residue; d: D form. The star is where a group is joined. Me3N+(CH2)2O(CH2)2O(CH2)2CO = C[N+](C)(C)CCOCCOCCC(=O)*; Trp(7-Me) = Cc1cccc2c(C[C@H](N)C(=O)O)c[nH]c12; 2Nal = N[C@@H](Cc1ccc2ccccc2c1)C(=O)O; AEF = NCCOc1ccc(C[C@H](N)C(=O)O)cc1; 3Pal = N[C@@H](Cc1cccnc1)C(=O)O; Aad = N[C@@H](CCCC(=O)O)C(=O)O; Lys(Me) = CNCCCC[C@H](N)C(=O)O; Pen = CC(C)(S)[C@H](N)C(=O)O; Thp = NC1(C(=O)O)CCOCC1; X1 = C[N+](C)(C)CCCCC*; Sar = CNCC(=O)O
# Experiments:
# [1] = biological target: T1, peripheral blood mononuclear cells (PBMCs) stimulated with IL-23 (Homo sapiens, UniProt Q5VWK5); assay: PBMC pSTAT3 assay; format: cell-based; conditions: PBMCs from healthy donors; IL-23 5 ng/mL, 30 minutes; phosphorylated STAT3 in lysates
# T1 sequence (Q5VWK5 24-629): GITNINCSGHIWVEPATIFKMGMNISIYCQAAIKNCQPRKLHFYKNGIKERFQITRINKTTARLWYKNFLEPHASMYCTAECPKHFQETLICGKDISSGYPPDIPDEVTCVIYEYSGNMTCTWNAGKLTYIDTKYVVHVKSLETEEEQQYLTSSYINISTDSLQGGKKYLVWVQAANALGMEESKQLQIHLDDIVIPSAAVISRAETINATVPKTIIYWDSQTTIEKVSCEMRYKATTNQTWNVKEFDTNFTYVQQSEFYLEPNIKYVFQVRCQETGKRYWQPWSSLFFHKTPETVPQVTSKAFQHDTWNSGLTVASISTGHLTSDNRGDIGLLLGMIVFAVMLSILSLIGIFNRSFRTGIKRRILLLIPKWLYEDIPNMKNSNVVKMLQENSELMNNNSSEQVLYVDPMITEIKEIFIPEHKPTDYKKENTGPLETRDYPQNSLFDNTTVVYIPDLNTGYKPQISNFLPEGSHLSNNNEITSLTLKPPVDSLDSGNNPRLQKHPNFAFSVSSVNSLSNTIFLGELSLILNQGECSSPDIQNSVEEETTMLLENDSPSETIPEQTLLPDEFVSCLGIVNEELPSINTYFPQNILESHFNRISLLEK
# Protocol: Cryopreserved peripheral blood mononuclear cells (PBMCs) from healthy donors were thawed and washed twice in ImmunoCult-XF T cell expansion medium (XF-TCEM) supplemented with CTL anti-aggregate wash. The cells were counted, resuspended at 2×10^5 cells per mL XF-TCEM supplemented with penicillin/streptomycin and 100 ng/mL […] (BioLegend, 579404), and cultured in tissue culture flasks coated with anti-CD3 (eBioscience, 16-0037-85 or BD Pharmingen, 555329) at 37° C. in 5% C02. On day 4 of culture, PBMCs were collected, washed twice in RPMI-1640 supplemented with 0.1% BSA (RPMI-BSA), and incubated in RPMI-BSA in upright tissue culture flasks for 4 hours at 37° C. in 5% C02. Following this ‘starvation,’ a total of 6×10^4 cells in 30 μL RPMI-BSA was transferred into each well of a 384-well plate pre-spotted with peptide or DMSO. The cells were incubated for 30 minutes prior to the addition of IL-23 at a final concentration of 5 ng/mL. The cells were stimulated with cytokine for 30 minutes at 37° C. in 5% C02, transferred onto ice for 10 minutes, and lysed. Cell lysates were stored at −80° C. until phosphorylated STAT3 was measured using the phospho-STAT panel kit (Meso Scale Discovery, K15202D). The results produced with PBMCs are provide in Table 5 below for several from Examples along with data from the IL23R Reporter Assays utilizing HEK293 cells described above. […]
# IL-23R = biological target: T2, IL-23R (Homo sapiens, UniProt Q5VWK5); assay: IL-23R reporter assay (HEK293, STAT-inducible luciferase); format: cell-based; conditions: Table 4; HEK293 cells with IL-23R, IL-12Rβ1 and STAT-inducible luciferase reporter, stimulated with IL-23
# T2 construct: host or cells: HEK293
# T2 sequence (Q5VWK5 24-629): T1 sequence (Q5VWK5 24-629)
# Protocol: Example 4. IL-23R Reporter Assay
# Compounds were serially diluted in 100% (v/v) DMSO) and plated using an Echo acoustic dispenser (Labcyte) into 1536-well non-treated black assay plates (Corning #9146). […] After 5 h at 37° C., 5% CO2, 95% relative humidity, cells were placed at 20° C. and treated with BioGlo reagent (Promega) according to the manufacturer's instructions. Luminescence was measured on a Pherastar FSX (BMG LabTech). […] Where multiple measurements have been made the average is shown with the number of replicates indicated in parenthesis following the IC50 values.
# [2] = the molecule shown is the open-chain precursor, 20-membered ring
compound,measurement,setting,value
CC(=O)N[C@H](CCCCN)C(=O)N[C@@H]1C(=O)N[C@@H](CCC(N)=O)C(=O)N[C@@H]([C@@H](C)O)C(=O)N[C@@H](Cc2c[nH]c3ccccc23)C(=O)N[C@@H](CCC(N)=O)C(=O)N[C@H](C(=O)N[C@@H](Cc2ccc(OCCNC(C)=C3C(=O)CC(C)(C)CC3=O)cc2)C(=O)N[C@@H](Cc2ccc3ccccc3c2)C(=O)NC2(C(=O)N[C@@H](CCC(=O)O)C(=O)N[C@@H](CC(N)=O)C(=O)NCCC(N)=O)CCOCC2)C(C)(C)SSC1(C)C,"ring closure, yield after HPLC","from Ac-dLys-Pen-Gln-Thr-Trp-Gln-Pen-AEF(Dde)-2Nal-THP-Glu-Asn-bAla-NH2?, disulfide bond, 20-membered ring, I2/AcOH, H2O/MeCN 1:1, 0.5 mM",48%
6Ahx(2)-Abu(1)-N-T-W-Q-C(1)-AEF-2Nal-THP-E(2)-N-3Pya-Sar-CONH2,"ring closure, yield after HPLC","amide bond, 29-membered ring, PyBOP/DIEA, DMF, 5.0 mM",5%
7Ahp(2)-Pen(3)-N-T-7MeW-K(Ac)-Pen(3)-AEF-2Nal-THP-E(2)-N-3Pya-Sar-CONH2,"ring closure, yield after HPLC","amide bond, 30-membered ring, PyBOP/DIEA, DMF, 5.0 mM",13%
CC(=O)N(C)CCCC[C@@H]1NC(=O)[C@H](Cc2c[nH]c3c(C)cccc23)NC(=O)[C@H]([C@@H](C)O)NC(=O)[C@H](CC(=O)N(C)C)NC(=O)[C@H]2NC(=O)[C@H](NC(=O)CCOCCOCC[N+](C)(C)C)CCCCNC(=O)CCC[C@@H](C(=O)N[C@@H](CC(N)=O)C(=O)N[C@@H](Cc3cccnc3)C(=O)N(C)CC(=O)N(C)C)NC(=O)C3(CCOCC3)NC(=O)[C@H](Cc3ccc4ccccc4c3)NC(=O)[C@H](Cc3ccc(OCCCCC[N+](C)(C)C)cc3)NC(=O)[C@@H](NC1=O)C(C)(C)SSC2(C)C [Compd 319] ({Me3N+(CH2)2O(CH2)2O(CH2)2CO}-[dK][Pen]D(NMe2)T[Trp(7-Me)][Lys(Me)](Ac)[Pen]Y(X1)[2Nal][Thp][Aad]N[3Pal][Sar]-NMe2; lactam 1-11; disulfide 2-7),IC50,[1],0.0079 nM
"CC(=O)NCCCC[C@@H]1NC(=O)[C@H](Cc2c[nH]c3ccccc23)NC(=O)[C@H]([C@@H](C)O)NC(=O)[C@H]2CCC(=O)NCCOc3ccc(cc3)C[C@@H](C(=O)N[C@@H](Cc3ccc4ccccc4c3)C(=O)NC3(C(=O)N[C@@H](CCCCNC(C)=O)C(=O)N[C@@H](CO)C(=O)N[C@@H](Cc4cccnc4)C(=O)N(C)CC(N)=O)CCOCC3)NC(=O)[C@@H](NC1=O)C(C)(C)SSC(C)(C)[C@H](NC(C)=O)C(=O)N2 [Example 4, Ac-[Pen]-E-T-W-[Lys(Ac)]-[Pen]-[Phe(4-(2-aminoethoxy))]-[2Nal]-[THP]-[Lys(Ac)]-S-[3Pal]-[Sarc]-NH2] (Ac-[Pen][dE]TWK(Ac)[Pen][AEF][2Nal][Thp]K(Ac)S[3Pal][Sar]-NH2; disulfide 1-6; lactam 2-7)",IC50,IL-23R,330 nM
"CC(=O)NCCCC[C@@H]1NC(=O)[C@H](Cc2c[nH]c3c(C)cccc23)NC(=O)[C@H]([C@@H](C)O)NC(=O)[C@H](CC(N)=O)NC(=O)[C@H]2NC(=O)CCCCCCNC(=O)CC[C@@H](C(=O)N[C@@H](CC(N)=O)C(=O)N(C)[C@H](Cc3ccc(O)cc3)C(N)=O)NC(=O)C3(CCOCC3)NC(=O)[C@H](Cc3ccc4ccccc4c3)NC(=O)[C@H](Cc3ccc(OCCN)cc3)NC(=O)[C@@H](NC1=O)C(C)(C)SSC2(C)C [Example 25, [7AminoHeptanoicAcid]-[Pen]-N-T-[W(7-Me)]-[Lys(Ac)]-[Pen]-[Phe(4-(2-aminoethoxy))]-[2Nal]-[THP]-E-N-[(D)NMeTyr]-NH2]",IC50,IL-23R,830 nM
"CC(=O)NCCCC[C@@H]1NC(=O)[C@H](Cc2c[nH]c3c(C)cccc23)NC(=O)[C@H]([C@@H](C)O)NC(=O)[C@H](CC(N)=O)NC(=O)[C@@H](NC(=O)CCCCCCN)C(C)(C)SSC(C)(C)[C@@H](C(=O)N[C@H]2Cc3ccc(cc3)OCCNC(=O)CC[C@@H](C(=O)N[C@@H](CC(N)=O)C(=O)N[C@@H](Cc3cccnc3)C(=O)N(C)CC(N)=O)NC(=O)C3(CCOCC3)NC(=O)[C@H](Cc3ccc4ccccc4c3)NC2=O)NC1=O [Example 137, [7AminoHeptanoicAcid]-[Pen]-N-T-[W(7-Me)]-[Lys(Ac)]-[Pen]-[Phe(4-(2-aminoethoxy))]-[2Nal]-[THP]-E-N-[3Pal]-[Sarc]-NH2]",IC50,IL-23R,430 nM
"CC(=O)NCCCC[C@@H]1NC(=O)[C@H](Cc2c[nH]c3c(C)cccc23)NC(=O)[C@H]([C@@H](C)O)NC(=O)[C@H](CC(N)=O)NC(=O)[C@@H](NC(=O)CCCCCCN)C(C)(C)SSC(C)(C)[C@@H](C(=O)N[C@H]2Cc3ccc(cc3)OCCNC(=O)CC[C@@H](C(=O)N[C@@H](CC(N)=O)C(=O)NC3(C(N)=O)CCOCC3)NC(=O)C3(CCOCC3)NC(=O)[C@H](Cc3ccc4ccccc4c3)NC2=O)NC1=O [Example 139, [7AminoHeptanoic Acid]-[Pen]-N-T-[W(7-Me)]-[Lys(Ac)]-[Pen]-[Phe(4-(2-aminoethoxy))]-[2Nal]-[THP]-E-N-[THP]-NH2]",IC50,IL-23R,> 16600 nM
Ac-O2R-Pen-Gln-Thr-Trp-Gln-Pen-Phe[4-(2-aminoethoxy)]-2Nal-THP-O2R-Asn-bAla-NH2,"ring closure, yield after HPLC","the molecule shown is the open-chain precursor, disulfide bond, 20-membered ring, I2/AcOH, then Boc2O/DIEA, H2O/MeCN, 0.55 mM, 2 steps",40%
Ac-Pen-Glu-Thr-Trp_7Me-Lys(Ac)-Pen-Phe_4_2ae-2Nal-THP-Lys(Ac)-Asn-His-Sar-NH2,"ring closure, yield after HPLC","the molecule shown is the open-chain precursor, disulfide bond, 20-membered ring, I2/MeOH, MeCN/H2O 20:80, 1.0 mM, with chain assembly",30%
H-6Ahx-Abu(4-Cl)-Asn-Thr-Trp-Gln-Cys-AEF-2Nal-THP-Glu-Asn-3Pya-Sar-NH2?,"ring closure, isolated yield","[2]; thioether bond, NaI/EDTA/Na2CO3, DMF, 1.07 mM",21%
H-7Ahp-Pen-Asn-Thr-7MeTrp-Lys(Ac)-Pen-AEF-2Nal-THP-Glu-Asn-3Pya-Sar-NH2,"ring closure, isolated yield","[2]; disulfide bond, I2/MeOH, MeCN/H2O 30:70, 1.0 mM",30.3%
H-PEG2-Pen-Asn-Thr-7MeTrp-Lys(Ac)-Pen-AEF(Dde)-2Nal-THP-hGlu-Asn-3Pya-Sar-NH2,"ring closure, isolated yield","[2]; disulfide bond, I2/MeOH, H2O/MeCN 1:1, 0.46 mM",32%
McCO-Glu-Pen-N-T-7MeW-K(Ac)-Pen-AEF-2Nal-THP—K(Ac)—N-3Pva-Sar-CONH2,"ring closure, yield after HPLC","amide bond, 24-membered ring, HATU/DIEA, DMF, 0.24 mM, 2 steps",10%
McCO-k(2)-Pen(3)-O-T-W-Q-Pen(3)-AEF-2Nal-THP-E(2)-N-bAla-CONH2,"ring closure, yield after HPLC","amide bond, 29-membered ring, HATU/DIEA, then N2H4, DMF, […], 2 steps",49%
PEG2(2)-Pen(3)-N-T-7MeW-K(Ac)-Pen(3)-AEF-2Nal-THP-hE(2)-N-3Pya-Sar-CONH2,"ring closure, yield after HPLC","amide bond, 32-membered ring, HATU/DIEA, then N2H4, DMF, 4.8 mM, 2 steps",14%
"ac-Pen(1:3)-Dap(2:3)-T-Trp 7Me-Lvs Ac-Pen(1:3)-Phe 4 2ae(3:3)-Nal-THP-Lys Ac—N—H-Sar-am-PEG4DA(x,2:1,3:2)","ring closure, yield after HPLC","crosslinker bond, 39-membered ring, PEG4DA-NHS/DIEA, DMF, 1.0 mM",50%
ac-Pen(1:3)-E(2:3)-T-Trp 7Me-Lys Ac-Pen(1:3)-Phe 4 2ae(2:3)-Nal-THP-Lys Ac—N—H-Sar-am,"ring closure, yield after HPLC","amide bond, 24-membered ring, PyBOP/DIEA, DMF, 1.0 mM",50%
